Patent US20160221974A1, “SODIUM CHANNEL MODULATORS FOR THE TREATMENT OF PAIN AND DIABETES” (CHROMOCELL CORPORATION, priority 2013, published 2016)

Experiments:
[1] = biological target: T1, hNaV1.7 (Homo sapiens, UniProt Q15858); assay: FDSS Membrane Potential In-Vitro Assay; format: cell-based; conditions: stimulation with veratridine and scorpion venom, read-out: NaV1.7 IC50
T1 construct: expressed in transfected cells

[2] = biological target: T2, NaV1.7 (Homo sapiens, UniProt Q15858); assay: Patchliner Electrophysiological In-Vitro Assay (NaV1.7); format: cell-based; conditions: Patchliner patch clamp, HEK293, holding at V1/2
T2 construct: expressed in transfected cells
T2 sequence (Q15858 whole entry): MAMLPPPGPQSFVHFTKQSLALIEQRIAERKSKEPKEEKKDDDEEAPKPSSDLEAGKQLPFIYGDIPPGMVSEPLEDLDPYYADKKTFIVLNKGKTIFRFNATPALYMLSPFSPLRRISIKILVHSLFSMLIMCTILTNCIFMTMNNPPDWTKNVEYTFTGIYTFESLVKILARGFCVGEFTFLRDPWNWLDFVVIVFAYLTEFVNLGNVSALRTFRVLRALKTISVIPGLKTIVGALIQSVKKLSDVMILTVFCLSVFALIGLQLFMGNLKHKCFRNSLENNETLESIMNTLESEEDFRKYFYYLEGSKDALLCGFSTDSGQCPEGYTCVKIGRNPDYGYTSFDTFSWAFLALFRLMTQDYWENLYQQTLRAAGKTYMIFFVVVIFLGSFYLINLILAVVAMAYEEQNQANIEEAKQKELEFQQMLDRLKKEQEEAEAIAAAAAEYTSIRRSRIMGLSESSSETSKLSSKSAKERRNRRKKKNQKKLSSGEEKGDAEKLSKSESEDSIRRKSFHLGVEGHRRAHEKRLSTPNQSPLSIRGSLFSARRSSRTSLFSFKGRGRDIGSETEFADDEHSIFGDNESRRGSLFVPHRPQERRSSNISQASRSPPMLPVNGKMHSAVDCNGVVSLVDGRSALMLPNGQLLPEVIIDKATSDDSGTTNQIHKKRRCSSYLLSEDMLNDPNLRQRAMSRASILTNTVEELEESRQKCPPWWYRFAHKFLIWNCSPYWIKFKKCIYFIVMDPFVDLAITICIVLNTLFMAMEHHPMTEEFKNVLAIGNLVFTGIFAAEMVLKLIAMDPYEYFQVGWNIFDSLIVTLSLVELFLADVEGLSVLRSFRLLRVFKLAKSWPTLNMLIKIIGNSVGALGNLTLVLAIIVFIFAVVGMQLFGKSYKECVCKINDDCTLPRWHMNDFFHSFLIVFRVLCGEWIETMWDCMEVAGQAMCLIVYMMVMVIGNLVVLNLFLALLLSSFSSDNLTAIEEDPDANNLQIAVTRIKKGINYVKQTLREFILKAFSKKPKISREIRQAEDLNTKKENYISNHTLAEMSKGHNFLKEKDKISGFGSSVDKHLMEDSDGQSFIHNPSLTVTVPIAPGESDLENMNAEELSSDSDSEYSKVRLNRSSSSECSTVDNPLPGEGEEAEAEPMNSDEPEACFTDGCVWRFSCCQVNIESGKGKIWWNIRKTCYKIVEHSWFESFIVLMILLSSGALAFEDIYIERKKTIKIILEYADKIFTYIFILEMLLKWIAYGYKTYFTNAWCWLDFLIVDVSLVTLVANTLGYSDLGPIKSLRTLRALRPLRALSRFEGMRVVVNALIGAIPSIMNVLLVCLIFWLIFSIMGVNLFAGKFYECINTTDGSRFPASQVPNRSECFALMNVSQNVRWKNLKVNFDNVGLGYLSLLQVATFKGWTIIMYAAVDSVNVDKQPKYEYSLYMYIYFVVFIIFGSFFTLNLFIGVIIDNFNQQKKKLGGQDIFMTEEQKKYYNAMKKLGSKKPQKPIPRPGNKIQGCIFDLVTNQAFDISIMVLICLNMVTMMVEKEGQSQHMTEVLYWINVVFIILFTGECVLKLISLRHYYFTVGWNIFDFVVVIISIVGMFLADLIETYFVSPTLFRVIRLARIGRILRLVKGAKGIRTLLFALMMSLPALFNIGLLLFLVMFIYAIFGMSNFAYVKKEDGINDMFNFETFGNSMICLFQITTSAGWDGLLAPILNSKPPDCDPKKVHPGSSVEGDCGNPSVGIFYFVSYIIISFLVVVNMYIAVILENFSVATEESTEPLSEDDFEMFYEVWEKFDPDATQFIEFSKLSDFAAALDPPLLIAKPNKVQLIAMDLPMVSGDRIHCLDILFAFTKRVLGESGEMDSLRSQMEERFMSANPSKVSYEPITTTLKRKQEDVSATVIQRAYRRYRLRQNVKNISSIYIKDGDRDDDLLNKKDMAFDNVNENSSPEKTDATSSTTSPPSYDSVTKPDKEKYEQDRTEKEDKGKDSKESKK
T2 sequence (Q07699 19-218 partner): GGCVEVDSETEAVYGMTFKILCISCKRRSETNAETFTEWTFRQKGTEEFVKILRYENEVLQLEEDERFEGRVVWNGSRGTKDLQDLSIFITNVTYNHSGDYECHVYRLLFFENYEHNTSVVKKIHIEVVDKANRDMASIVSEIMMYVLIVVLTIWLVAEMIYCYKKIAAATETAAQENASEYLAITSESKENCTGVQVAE
T2 sequence (O60939 30-215 partner): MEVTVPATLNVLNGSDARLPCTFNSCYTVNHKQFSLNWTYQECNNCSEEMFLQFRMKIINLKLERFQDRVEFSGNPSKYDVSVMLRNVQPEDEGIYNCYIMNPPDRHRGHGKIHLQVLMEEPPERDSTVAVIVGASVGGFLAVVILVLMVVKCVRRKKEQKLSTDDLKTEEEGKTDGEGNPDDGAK
In short: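 Automated whole-cell patch clamp at room temperature on HEK293 cells stably expressing hNav1.7 with β1 and β2 subunits. Inactivated-state Ki: cells held at their own V1/2, stepped to −120 mV for 5–10 ms, then to Vmax for 10–20 ms, repeated every 10 s; dose-dependent inhibition analysed.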

[3] = biological target: T3, CYP3A4 (Homo sapiens, UniProt P08684); assay: In-Vitro Cytochrome P450 (CYP450) Inhibition Assay (Vivid CYP450); format: in vitro ADME; conditions: CYP3A4 enzyme complex (Vivid CYP450, Invitrogen), 6 μM test concentration
T3 construct: purchased Invitrogen
T3 sequence (P08684 2-503 limits assumed): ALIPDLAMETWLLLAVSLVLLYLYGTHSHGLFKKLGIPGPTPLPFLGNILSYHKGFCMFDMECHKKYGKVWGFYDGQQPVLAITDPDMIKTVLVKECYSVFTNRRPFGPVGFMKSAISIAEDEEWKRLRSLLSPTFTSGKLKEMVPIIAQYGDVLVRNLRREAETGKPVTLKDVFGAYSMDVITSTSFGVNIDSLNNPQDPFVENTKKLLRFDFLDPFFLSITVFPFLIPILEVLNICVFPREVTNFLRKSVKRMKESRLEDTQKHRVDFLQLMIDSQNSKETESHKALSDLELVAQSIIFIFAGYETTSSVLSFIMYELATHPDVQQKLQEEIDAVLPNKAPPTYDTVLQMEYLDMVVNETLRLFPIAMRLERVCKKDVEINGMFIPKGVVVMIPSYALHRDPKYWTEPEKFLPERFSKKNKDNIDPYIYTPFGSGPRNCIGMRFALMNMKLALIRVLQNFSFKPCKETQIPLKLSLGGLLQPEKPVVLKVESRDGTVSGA
Procedure: We evaluated interaction of drug candidates with cytochrome P450 enzymes which are a major determinant of drug clearance via oxidative metabolism using a high throughput compatible, fluorescence based CYP450 screening assay (Vivid® CYP450, Invitrogen) according to manufacturer's directions.
In brief, test compounds at four different concentrations (μM—6.0, 2.0, 0.7, 0.2), a positive control (Ketoconazole) and a solvent control were incubated at room temperature in unique wells of a 96-well microtiter plate with CYP3A4 enzyme complex for 20 minutes. A pre-read fluorescence (Ex−485 nm/Em−530 nm) was measured at the start of the incubation using a Tecan Safire^2 microplate reader-monochromator to determine background fluorescence. At the end of the incubation period, enzyme substrate and co-enzyme were added and the reaction was kinetically monitored for 1 hour by measuring fluorescence every minute. Effect of test compounds on inhibition of CYP3A4 metabolism of provided substrate was determined by calculating the ratio of the effective reaction rate in presence of test compound to that in the absence of inhibitor.

[4] = test system: streptozotocin (STZ)-induced diabetic model; assay: Streptozotocin (STZ)-Induced Model of Diabetic Neuropathy, behavioral tests; format: in vivo, male Sprague-Dawley rats; conditions: 30 mg/kg, measured 30 minutes post dose
Procedure: 250-350 g male Sprague-Dawley rats from appropriate animal resources were used. Type I diabetes was induced by a single injection, (intraperitoneally, intravenously or intramuscularly) of 50-100 mg/kg of streptozotocin (STZ, Sigma Chemicals, St. Louis, Mo. or VWR) freshly dissolved in sodium citrate (0.01 M, pH 4.5). Sham animals were given either saline or same vehicle injection. Following a wait time of about two days, inducement of diabetes was confirmed in STZ-injected rats by measuring the plasma glucose concentrations in blood samples from the tail vein after a fast of 6 hours. […] Other parameters (water intake, food intake, and bodyweight) were monitored before the treatment with a test compound and after the cessation of the treatment.
The analgesic effect of the test compound was expressed as a percent recovery (% Recovery) relative to the sham control group baseline and calculated according to the formula: […]
(§1) Rats were placed on the glass surface of a thermal testing apparatus (Model 336, IITC/Life Science Instruments, Woodland Hills, Calif.) and were allowed to acclimate for 10 min before testing on the glass surface at room temperature. […] The paw withdrawal latency was recorded by a digital timer. The thermal threshold was determined as the mean withdrawal latency from two to three consecutive trials of both hindpaws. […]

[5] = test system: Partial Sciatic Nerve Ligation (PSNL) model; assay: Partial Sciatic Nerve Ligation (PSNL) model, behavioral tests; format: in vivo, male Sprague-Dawley rats
Excerpt: 250-350 g male Sprague-Dawley rats from appropriate animal resources were anesthetized with 2.5% isoflurane. A hind leg was shaved, and the skin was sterilized with 0.5% iodine and 75% alcohol. All surgical instruments were sterilized before surgery and between animals. An incision (1 cm) was made at the middle of the thigh in parallel with the muscle and sciatic nerve distribution. The muscle was exposed and dissected at the joint of two muscles (biceps femoris) indicated by the light colored (white) fascia line. The sciatic nerve was just beneath the muscle and was hooked out using an 18-20 G feeding needle (90 degree curved); the sciatic nerve was flat on the feeding needle and approximately one-half the diameter of the nerve is tightly ligated with 7-0 silk suture. A response of the injured leg twitch indicates the success of ligation. After checking hemostasis, bupivicaine 0.1-0.2 ml (0.125%) was given at the incision area, the muscle and the adjacent fascia are closed with 5-0 absorbable sutures. The skin was sutured with absorbable suture and tissue glue. The control group using sham surgery animals (about 8-10 animals) underwent the same surgical procedure but with no nerve ligation. Animals were returned to their home cage after recovery from anesthesia.
The analgesic effect of the test compound was expressed as a percent recovery (% Recovery) relative to the sham control group baseline and calculated according to the formula:
% Recovery=100%−{[(sham mean−test compound mean)/(sham mean−vehicle mean)]×100%}
wherein “sham mean” refers to average score in the sham-operated group; “test compound mean” refers to average score in the PSNL-group (animals with partial sciatic nerve ligation) or diabetic group (animals treated with STZ) treated with a test compound; “vehicle mean” refers to average score in the PSNL-group or diabetic group treated with vehicle only. The above formula was used to obtain data for the following in vivo behavioral tests.
The following behavioral tests were conducted (i.e., plantar test, paw pressure test, and von Frey test) started on day 3 and thereafter once weekly following surgery or use of a diabetic inducer. […]
as §1
Animals were placed under clear plastic boxes above a wire mesh floor, which allowed full access to the paws. […] Mechanical paw withdrawal thresholds (PWTs) were measured with the up-down testing paradigm. […]

[6] = test system: Acetic Acid Writhing Model; assay: Writhing Model (Inflammatory Abdominal Pain), rats; format: in vivo; conditions: relative to vehicle control, doses of 10 to 30 mg/kg intraperitoneal route
Procedure: The Acetic Acid Writhing Model is associated with visceral pain (abdominal pain, such as stomach pain, and pain caused by, for example, bile duct congestion and kidney stones). A writhing test assesses acute peritoneovisceral pain. After acclimation of 2-3 days, a test compound, positive control or vehicle control was administered by intraperitoneal injection (i.p.) or by oral gavage 15-30 minutes prior to administration of acetic acid. The time of administration of test compound was recorded. For mice: Method A: 0.6% Acetic acid solution in saline was injected i.p. in a volume of 10 ml/kg; Method B: 1.2% Acetic acid solution in saline was injected i.p. in a volume of 5 ml/kg. For rats: 4% acetic acid in saline was injected i.p in a volume of 2 ml/kg at T=0 minutes. Each animal was placed in a clear plastic cage. At T=5 minutes, the number of writhing movements was counted over a 45 minute period. Alternatively, the writhing movements were counted over a 5-minute period and repeated every 5 minutes, starting at T=5 minutes over a 45-minute period. For each compound tested, the individual score was obtained by calculating the accumulated writhing movements for the time period studied. […]

[7] = test system: Formalin Test (pain behaviors); assay: Formalin Test (pain behaviors); format: in vivo, rat; conditions: relative to vehicle control; 75 mg/kg, oral route
[8] = 30 mg/kg intraperitoneal, measured 30-60 minutes post dose

T1 sequence (Q15858 whole entry): as the sequence (Q15858 whole entry) above
T1 sequence (Q07699 19-218 partner): as the sequence (Q07699 19-218 partner) above
T1 sequence (O60939 30-215 partner): as the sequence (O60939 30-215 partner) above

O=C(O)CCNCCCc1cc(Cl)ccc1Oc1cc(F)c(S(=O)(=O)Nc2cscn2)cc1Cl [Compound 15, 3-((3-(5-chloro-2-(2-chloro-5-fluoro-4-(N-(thiazol-4-yl)sulfamoyl)phenoxy)phenyl)propyl)amino)propanoic acid]
IC50 [1]: 130 to 1000 nM
IC50 [2]: < 100 nM
inhibition at 1 hour, 6 µM [3]: 0 to 25%
effect in the tactile allodynia test [4]: no significant effect

C#CCN(CCCc1cc(Cl)ccc1Oc1cc(F)c(S(=O)(=O)Nc2nccs2)cc1Cl)CC(=O)O [Compound 54, 2-((3-(5-chloro-2-(2-chloro-5-fluoro-4-(N-(thiazol-2-yl)sulfamoyl)phenoxy)phenyl)propyl)(prop-2-yn-1-yl)amino)acetic acid]
effect in the tactile allodynia test ([5]; oral route, relative to vehicle control, measured 30 minutes post dose): no significant effect

O=C(O)CNC(=O)c1cc(-c2cc(Cl)ccc2Oc2cc(F)c(S(=O)(=O)Nc3ncns3)cc2Cl)ccn1 [Compound 2, 2-(4-(2-(4-(N-(1,2,4-thiadiazol-5-yl)sulfamoyl)-2-chloro-5-fluorophenoxy)-5-chlorophenyl)picolinamido)acetic acid]
IC50 [1]: < 130 nM
IC50 [2]: < 100 nM
inhibition at 1 hour, 6 µM [3]: 50 to 100%
effect in the tactile allodynia test [5, 8]: no significant effect
reduction in pain (writhing) [6]: 48-58%

O=C(O)CCNC(=O)c1cc(-c2cc(Cl)ccc2Oc2cc(F)c(S(=O)(=O)Nc3ncns3)cc2Cl)ccn1 [Compound 1, 3-(4-(2-(4-(N-(1,2,4-thiadiazol-5-yl)sulfamoyl)-2-chloro-5-fluorophenoxy)-5-chlorophenyl)picolinamido)propanoic acid]
IC50 [1]: < 130 nM
IC50 [2]: < 100 nM
inhibition at 1 hour, 6 µM [3]: 50 to 100%
reduction in pain response (formalin assay phase 2) [7]: 17%
reduction in pain response (formalin assay, phase 1) [7]: 14%
effect in the tactile allodynia test [5, 8]: no significant effect
